Measured values: PubChem BioAssay AID179 (DTP/NCI, 2004)
The source made the active and inactive calls.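 The calls were made as follows: active = compounds giving half or more protection of infected cells from virus-caused growth loss, again on retest; inactive = the rest.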

Tested on: CEM cells HIV-1 protection, formazan growth assay
Assay: NCI AIDS Antiviral Assay
Conditions: for IC50: measured here: growth of uninfected CEM cells
Method in brief: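 Five concentrations of each compound were applied to infected and uninfected human CEM cells. Protection from HIV-1 was judged from growth measured with a soluble formazan assay.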

SMILES | EC50 | IC50 | outcome
N=C(N)C1CN(CCCCCCCCCCN2CC(C(=N)N)C(=O)NC2=O)C(=O)NC1=O (configuration not stated) | > 200 µM | > 200 µM | –
CCCCCCCCCCCCC(=O)NCC(=O)NC(Cc1ccccc1)C(=O)Oc1ccc([N+](=O)[O-])cc1 (configuration not stated) | > 200 µM | 5.25 µM | –
CCC(C)C(NC(=O)c1ccccc1SC(=O)CCC[n+]1ccccc1)C(N)=O (configuration not stated) | > 75.9 µM | 4.79 µM | –
O=C(O)C1CSCN1 (configuration not stated) | > 468 µM | > 468 µM | –
Cc1cc(NS(=O)(=O)c2ccc(NC(=O)c3ccc4nc5ccccc5c(Nc5ccc(S(=O)(=O)Nc6cc(C)on6)cc5)c4c3)cc2)no1 | 67.6 µM | > 100 µM | –
O=c1c(O)c(-c2ccc(O)c(O)c2)oc2cc(O)cc(O)c12.[Zr] | > 200 µM | > 200 µM | –
COc1ccc(C(=C(C#N)C#N)c2ccc(OC)cc2)cc1 | – | – | inactive
CCOc1ccc(N=Nc2ccc3oc(=O)c(C(=O)Nc4ccc(OC)cc4)cc3c2)cc1 | > 8.51 µM | > 8.51 µM | –
CCCCn1c(-c2ccccc2)cs/c1=N\N=C1C=C(C(C)(C)C)C(=O)C(C(C)(C)C)=C1 | > 15.8 µM | > 15.8 µM | –
O=C(NC1CCC(=O)N1C(=O)OCc1ccccc1)OCc1ccccc1 (configuration not stated) | > 200 µM | > 200 µM | –
CCCCc1ccc(-n2c3nc(=O)n(C)c(=O)c-3nc3ccccc32)cc1 | – | – | inactive
COC(=O)c1cc(C(=CC(=O)N[C@H]2CC[C@]3(C)C4CC[C@]5(C)[C@@H](C(C)CCCC(C)C)CC[C@H]5C4CC[C@H]3C2)c2cc(Cl)c(OC)c(C(=O)OC)c2)cc(Cl)c1OC (some centres not stated) | > 100 µM | > 100 µM | –
Nc1ccc(S(=O)(=O)Nc2ccccc2)cc1 | > 200 µM | > 200 µM | –
O=C1OC(c2ccc(Cl)cc2)(c2ccc(Cl)cc2)c2c1ccc1ccccc21 | – | – | inactive
NC1C2C(CC(=O)O)OCC=C3CN4CCC1(C(=O)C(=O)O)C4CC32 (configuration not stated) | > 28.8 µM | > 28.8 µM | –
Nc1nnc2ccccn12 | > 977 µM | > 977 µM | –
O=c1[nH]c(=O)n([C@H]2C[C@@H](CO)[C@@H](O)C2)cc1I | > 708 µM | > 708 µM | –

SMILES | EC50 | IC50 | outcome
CC(=O)O[C@]1(C)C(=O)OC2C1C(OC(=O)C=C(C)C)C[C@](C)(OC(C)=O)[C@H]1[C@H](O)C=C(C)[C@@H]21 (some centres not stated) | > 269 µM | 10 µM | –
COc1cc2c(c(OC3OC(CO)C(O)C(O)C3O)c1)C(=O)CC(c1ccc(O)cc1)O2 (configuration not stated) | > 200 µM | 195 µM | –
CNC(=O)N(C1=NCC(C)S1)c1ccc(C)c(C)c1 (configuration not stated) | – | – | inactive
CCOC(=O)/C(C#N)=C\C=C1/C=CNC2=NCCN21 | 19.5 µM | 24.5 µM | –
COc1cc2c3c(c1)[nH]c(=S)n3C(=O)CS2 | > 28.8 µM | > 28.8 µM | –
O=S(=O)([O-])[O-].O=c1[nH]cnc2[nH]ncc12.O=c1[nH]cnc2[nH]ncc12.[Cu+2] | > 83.2 µM | 52.5 µM | –
CN(C)CCCNC(CC#N)CCC#N (configuration not stated) | > 200 µM | > 200 µM | –
CCCCCCCCCCCc1c(O)c(=O)c2c(oc3c(=O)c(CCCCCCCCCCC)c(O)c(=O)c3n2-c2ccc(N(C)C)cc2)c1=O | > 2.04 µM | > 2.04 µM | –
Cc1cc(C)nc(NS(=O)(=O)c2ccc(Nc3c4ccccc4nc4ncccc34)cc2)n1 | – | – | inactive
NS(=O)(=O)c1ccc(NC(=O)c2ccccc2SSc2ccccc2C(=O)Nc2ccc(S(N)(=O)=O)cc2)cc1 | 2.19 µM | 85.1 µM | –
O=C(CCCCC1CCSS1)N(C(=O)NC1CCCCC1)C1CCCCC1 (configuration not stated) | > 200 µM | 10.5 µM | –
NS(=O)(=O)c1ccc(NNC(=O)c2cccc3c(=O)c4ccccc4[nH]c23)cc1 | > 200 µM | 58.9 µM | –
CCNC(=S)NNC(=O)c1nsc2ccccc12 | > 339 µM | 186 µM | –
Cc1nc(N)nc(N)c1CCCc1ccccc1 | – | – | inactive
CC1(C)CC(/C=C2/OC(=O)c3ccccc32)=C(C#N)C(=O)O1 | > 33.9 µM | > 33.9 µM | –
Cc1ccc2nc(NC(=O)C(=O)C(C#N)c3ccc(Cl)cc3)sc2c1 (configuration not stated) | > 49 µM | > 49 µM | –
S=P(N1CC1)(N1CC1)N1CC1 | > 1320 µM | 3.16 µM | –
